The subject of data set [1] is urethral resistance increasing effect of Compound A′. Put plainly: Influence of antagonists (SB 242084, methiothepin) on urethral resistance increasing effect of Compound A′ in rats. Type of data set: in vivo, rat. Particulars: mean ± SEM; for LPP Increase: Post minus Pre; for LPP Pre: before administration. On the procedure:
Ninety female rats of SD strain were used. […] Isoflurane inhalation was added during the surgery, if necessary. In the experiment with intrathecal administration, the dura mater was exposed by laminectomy and then partially opened by incision, through which a catheter (PE-10) filled with saline was then implanted at the level of the L6-S1 site, followed by the closing of the incision. After opening of the abdomen, a catheter (PE-90) was inserted into the bladder. In order to secure reduced urethral resistance, unilateral nerve to iliococcygeus and pubococcygeus muscles was transected. For intraduodenal administration, another catheter (PE-50) was inserted into the duodenum in advance. The abdominal muscle and skin were each closed with sutures. Two (right and left) sites of abdominal skin near the diaphragm were cut to expose abdominal muscle. The bladder was emptied through the catheter, followed by the injection of 0.2 to 0.3 mL of Evans blue solution. Change in intravesical pressure was recorded using the bladder catheter via a pressure transducer, an electric signal amplifier, and an analog-to-digital converter. While change in intravesical pressure was recorded, the presence or absence of fluid leakage from the urethral orifice was observed under the electrical stimulation of the exposed abdominal muscle using an electrical stimulator and an isolator. […] The peak of the intravesical pressure during the stimulation of the abdominal muscle was measured, and the lowest pressure at which the fluid leakage was observed among the trials was defined as LPP for the electrical abdominal muscle stimulation method. In order to examine whether the urethral resistance increasing effect of Compound A′ is based on its agonistic potency on 5-HT2C receptors, SB 242084, methiothepin, or a vehicle was intravenously administered, and Compound A′ or a vehicle was intraduodenally administered 5 minutes later. SB 242084 was dissolved in a mixed solution of N,N-dimethylacetamide and polyethylene glycol 400 (1:1) and administered at 0.03 mg/0.5 mL/kg, 0.1 mg/0.5 mL/kg and 0.3 mg/0.5 mL/kg. Methiothepin was dissolved in saline and administered at 0.03 mg/0.5 mL/kg. 0.1 mg/0.5 mL/kg and 0.3 mg/0.5 mL/kg. Compound A′ was suspended in 0.5% MC and administered at 3 mg/mL/kg. LPP was measured again 30 minutes after Compound A′ administration. In order to examine where Compound A′ works in the body to increase urethral resistance, the blocking of the effect of Compound A′ was confirmed by blocking the functions of Compound A′ by giving methiothepin at a particular site in the body. Particularly, in the experiment with intrathecal administration, methiothepin or a vehicle was intrathecally administered, and Compound A′ or a vehicle was intraduodenally administered 5 minutes later. Methiothepin was dissolved in saline and 20 μL of the obtained solution was administered. Compound A′ was suspended in 0.5% MC and administered at 3 mg/mL/kg. LPP was measured again 30 minutes after Compound A′ administration.
Regarding change in LPP before and after drug administration, the differences between the mean values of the Compound A′-treated and vehicle-treated groups were analyzed by the Student's t test or the Welch's test. In order to analyze the influence of the antagonists on the effect of Compound A′, the differences between the mean values of the SB 242084- or methiothepin- and Compound A′-administered group and the vehicle- and Compound A′-administered group were analyzed by the one-tailed Williams' test.

The conditions of data set [2]: cited from earlier work.
Data set [3] in a line: Plasma concentrations in rats 30 minutes after oral administration (effective plasma concentration at LPP10). Particulars: rat.
Method: Ten female rats of SD strain were anesthetized with isoflurane. In order to secure the same conditions as those for drug-administered animals, their spinal cord was transected at the T8-T9 (the eighth thoracic cord—the ninth thoracic cord) level. Then, a cannula for blood collection was inserted into the femoral artery. […] These drugs were each dissolved in 0.5% MC. Thirty minutes after oral administration, up to 250 μL of blood was collected from the femoral artery or the tail vein and treated with heparin. The collected blood was immediately cooled on ice and centrifuged under conditions involving 3,000 rpm and 4° C. for 10 minutes to obtain plasma. The plasma samples were stored under conditions of −80° C. until drug quantification.
After thawing of the plasma samples, the internal standard compound was added thereto, and the mixture was then centrifuged under conditions of 5,250 rpm. The drug contained in 60 μL of the supernatant was quantified by LC-MS/MS.
Data set [4] can be described thus: Comparison of plasma concentrations for urethra-closing effect and anti-obesity effect (analysis of Examples 1-9 and literature).
Data set [5] deals with urethral resistance. Put plainly: Urethral resistance (LPP) during intravesical pressure rise by electrical stimulation of rat abdominal muscle. Type of data set: in vivo. The following applies: mean ± SEM; for LPP Post: 30 minutes after administration; for LPP Increase: Post minus Pre; for LPP Pre: before administration.
Method: Fifty six female rats of Sprague-Dawley strain (hereinafter, referred to as “SD strain”) were used. The rats were anesthetized with urethane, and their spinal cord was transected at the T8-T9 (the eighth thoracic cord—the ninth thoracic cord) level for the elimination of reflex voiding. Isoflurane inhalation was added, if necessary. After opening of the abdomen, a catheter (PE-100) was inserted into the bladder. In order to secure reduced urethral resistance, unilateral nerve to iliococcygeus and pubococcygeus muscles was transected. For intraduodenal administration, another catheter (PE-50) was inserted into the duodenum in advance. The abdominal muscle and skin were each closed with sutures. Two (right and left) sites of abdominal skin near the diaphragm were cut to expose abdominal muscle. The bladder was emptied through the catheter, followed by the injection of 0.2 to 0.3 mL of 0.1% Evans blue solution. Change in intravesical pressure was recorded using the bladder catheter via a pressure transducer, an electric signal amplifier, and an analog-to-digital converter. While change in intravesical pressure was recorded, the presence or absence of fluid leakage from the urethral orifice was observed under the electrical stimulation of the exposed abdominal muscle using an electrical stimulator and an isolator. […] The peak of the intravesical pressure during the stimulation of the abdominal muscle was measured, and the lowest pressure at which the fluid leakage was observed among the trials was defined as leak point pressure (hereinafter, referred to as “LPP”) for the electrical abdominal muscle stimulation method and used as an index for urethral resistance. Each drug was evaluated for its effect by comparing LPP before drug administration with that after drug administration. […] The drugs were suspended in 0.5% methylcellulose solution (MC). […] LPP was measured again 30 minutes after administration. Regarding change in LPP before and after drug administration, the differences between the mean values of the drug-treated and vehicle groups were analyzed by the one-tailed Williams' test.
Data set [6] deals with urethra-closing reflex response. The data set can be described thus: Urethra-closing reflex response induced by intravesical pressure rise in rats. Type of data set: in vivo, rat. Particulars: 20 mg/kg i.d., mean ± SEM.
Method: Thirty-two female rats of SD strain were used. The rats were anesthetized with urethane. Isoflurane inhalation was added during the surgery, if necessary. Their spinal cord was transected at the T8-T9 (the eighth thoracic cord—the ninth thoracic cord) level to eliminate the reflex voiding and to inhibit the transition from the urine storage phase to the voiding phase in the voiding cycle. After opening of the abdomen, the bladder neck was ligated with suture, and a catheter (PE-100) was inserted into the bladder. The bladder catheter was connected to a pressure transducer and a saline-containing reservoir via three-way stopcocks. A microtip transducer catheter was inserted from the urethral orifice toward the bladder so that its transducer was inserted into the urethra. Local change in pressure within the urethra (intraurethral pressure) was recorded via an electric signal amplifier and an analog-to-digital converter. […] Then, the reservoir was brought back to the original position to adjust the intravesical pressure to its baseline. Such change in intraurethral pressure induced by intravesical pressure rise was repeatedly measured, and the mean value from the last 2 trials was used as a Pre value. The vehicle used was 0.5% MC. […] Thirty minutes after administration, the change in intraurethral pressure induced by intravesical pressure rise was measured again and used as a Post value. The average value before intravesical pressure rise was subtracted from the average value during intravesical pressure rise, and the subtracted value was used as urethra-closing reflex response. The ratio of the Post value to the Pre value was calculated.
Data set [7] has as its system urethral resistance. The data set can be described thus: Rat urethral resistance (LPP) measured by high speed infusion of saline into the bladder. Type of data set: in vivo. Particulars: mean ± SEM; for LPP Post: 30 minutes after administration; for LPP Increase: Post minus Pre; for LPP Pre: before administration.
From the text: The rats were anesthetized with isoflurane. Their spinal cord was transected at the T8-T9 (the eighth thoracic cord—the ninth thoracic cord) level. After opening of the bladder dome, two polyethylene tubes (PE-100) were inserted into the bladder. The incised portion of the bladder was closed with sutures, and the other incisions were also closed. The rats were placed in Bollman cages. The catheter for intravesical pressure measurement was connected to a pressure transducer, while the catheter for saline filling was connected to a syringe filled with Evans Blue-dyed saline. Change in intravesical pressure was recorded using the pressure transducer via an electric signal amplifier and an analog-to-digital converter. After recovery of the animals from anesthesia, the intravesical pressure measurement was started, and saline was infused at a speed of 0.1 mL/sec into the bladder using an infusion pump. The infusion was stopped when the leakage of the saline from the urethral orifice was observed. Immediately thereafter, the bladder was emptied by releasing the pressure. In this operation, the peak of recorded intravesical pressure during the saline infusion was used as LPP in this Example. This measurement was repeated, and the average LPP from the last three measurements was used as the LPP value of the trial. The mean from 2 such trials was used as a Pre value. 0.5% MC was used as the vehicle. […] The difference in LPP from the Pre value (increased amount of LPP) was calculated. Regarding change in LPP before and after drug administration, the differences between the mean values of the drug-treated and vehicle-treated groups were analyzed by the one-tailed Williams' test.
The subject of a further data set is urethra-closing response. The data set can be described thus: MT (threshold inducing urethra-closing response) under transcranial magnetic stimulation in healthy female volunteers. Type of data set: in vivo, human. Particulars: for MT of the urethra-closing response in response to TMS, Mean / Rate of change from baseline of MT of the urethra-closing response in response to TMS, Mean: 40 mg capsule single oral dose.

[8] abbreviates: methiothepin 10 μg intrathecal + Compound A′ 3 mg/kg i.d.
The mark [9] stands for this setting: methiothepin 30 μg intrathecal + Compound A′ 3 mg/kg i.d.
[10] abbreviates: methiothepin 0.03 mg/kg i.v. + Compound A′ 3 mg/kg i.d.
Setting [11] is: methiothepin 100 μg intrathecal + Compound A′ 0 mg/kg i.d.
Setting [12] is: methiothepin 100 μg intrathecal + Compound A′ 3 mg/kg i.d.
The mark [13] stands for this setting: methiothepin 0.1 mg/kg i.v. + Compound A′ 3 mg/kg i.d.
Setting [14] is: methiothepin 0.3 mg/kg i.v. + Compound A′ 0 mg/kg i.d.
Setting [15] is: methiothepin 0.3 mg/kg i.v. + Compound A′ 3 mg/kg i.d.

The structures appear in SMILES notation. Structures can show the parent of a compound that is named as a salt. Where two headings read alike, the source gives them in different places.

Method for urethra-closing response: The test subjects were healthy female volunteers having a body weight of at least 45 kg (average: 50.91 kg, standard deviation: 3.346) and a BMI value of 18.5 kg/m^2 to 25.0 kg/m^2 (average: 19.57 kg/m^2, standard deviation: 0.929).
A washout period of at least 7 days was provided between the treatments.
A capsule containing 40 mg of duloxetine was orally administered as duloxetine together with water. A placebo capsule containing saccharose and spherical starch granules was orally administered as a placebo for duloxetine together with water.
Specifically, during the TMS, the output of a magnetic stimulator (Magstim Rapid Square, manufactured by Magstim Co., Ltd.) was increased by 5% each time using 110 mm double cone coil, and the minimum output at which urethra-closing response occurred abruptly was determined and used as MT (%). The urethra-closing response was detected by measuring contractile responses within the urethra. The contractile response within the urethra was measured using Duet Logic G2 (manufactured by Mediwatch Ltd.) and UniTip (manufactured by Unisensor AG). MT was measured again after administration of each drug, and the rate of change (%) from the baseline was calculated. The rate of change was determined by dividing MT after administration of each drug by MT before administration.

For the molecule `CSc1ccc2c(c1)C(N1CCN(C)CC1)Cc1ccccc1S2.O=C(O)/C=C\C(=O)O` (stereo not shown) [methiothepin, methiothepin maleate], the “LPP Post” value in data set [1] (methiothepin 10 μg intrathecal + Compound A′ 3 mg/kg i.d., 30 minutes after Compound A′) worked out at 69.4 ± 10.4 cmH2O; in data set [1] (methiothepin 30 μg intrathecal + Compound A′ 3 mg/kg i.d., 30 minutes after Compound A′) it was 52.1 ± 8.6 cmH2O; in data set [1] (methiothepin 100 μg intrathecal + Compound A′ 0 mg/kg i.d., 30 minutes after i.d. administration), 40.5 ± 3.2 cmH2O; in data set [1] (methiothepin 100 μg intrathecal + Compound A′ 3 mg/kg i.d., 30 minutes after Compound A′) it was 45.9 ± 5.5 cmH2O; in data set [1] (methiothepin 0.1 mg/kg i.v. + Compound A′ 3 mg/kg i.d., 30 minutes after Compound A′), 59.9 ± 3.7 cmH2O; in data set [1] (methiothepin 0.3 mg/kg i.v. + Compound A′ 0 mg/kg i.d., 30 minutes after i.d. administration), 44.0 ± 7.1 cmH2O. Also, the “LPP Post” value in data set [1] (methiothepin 0.3 mg/kg i.v. + Compound A′ 3 mg/kg i.d., 30 minutes after Compound A′) was determined as 40.6 ± 4.9 cmH2O. Further, the “LPP Increase” value in data set [1] (setting [8]) is listed as 35.3 ± 9.8 cmH2O; in data set [1] (setting [9]), 11.1 ± 6.5 cmH2O; in data set [1] (setting [10]) it was 17.9 ± 4.3 cmH2O; in data set [1] (setting [11]), −5.3 ± 3.0 cmH2O; in data set [1] (setting [12]) it was 5.6 ± 3.5 cmH2O; in data set [1] (setting [13]), 9.5 ± 3.3 cmH2O. Besides, the “LPP Increase” value is recorded as −2.0 ± 2.5 cmH2O in data set [1] (setting [14]) and −2.2 ± 2.9 cmH2O in data set [1] (setting [15]). In addition, the “LPP Pre” value stood at 34.1 ± 3.2 cmH2O in data set [1] (setting [8]); 41.0 ± 3.6 cmH2O in data set [1] (setting [9]); 44.4 ± 2.5 cmH2O in data set [1] (setting [10]); 45.8 ± 4.8 cmH2O in data set [1] (setting [11]); 40.4 ± 3.0 cmH2O in data set [1] (setting [12]); 50.4 ± 4.4 cmH2O in data set [1] (setting [13]). Besides, the “LPP Pre” value is on record as 46.0 ± 9.6 cmH2O in data set [1] (setting [14]) and 42.9 ± 3.8 cmH2O in data set [1] (setting [15]).
For the molecule `C[C@H]1CNCCc2ccc(Cl)cc21` [Compound B, (R)-8-chloro-1-methyl-2,3,4,5-tetrahydro-1H-3-benzazepine], the “average plasma concentration in a day (steady state) giving a body weight lowering effect greater than placebo by 3.8% in humans” value in data set [2] (10 mg b.i.d. (launched dose), free form) is listed as 43 ng/mL. Also, the “average plasma concentration in a day (steady state) giving a body weight lowering effect greater than placebo by 2.6% in humans” value in data set [2] (10 mg q.d., free form) is on record as 24 ng/mL. Further, the figures for the blood concentration in data set [2] (after a single administration of a sustained release formulation containing 20 mg) and in data set [2] (sustained release formulation containing 20 mg once daily) were 39 ng/mL and 74 ng/mL, respectively. In addition, in data set [2] (launched dose 10 mg bid), the “plasma concentration Cmin” value was 26 ng/mL. The concentration at 30 min in data set [3] (female, SD, plasma, po, 4 mg/kg) was 32.9 ± 18 ng/mL. Also, in data set [3] (measured concentration multiplied by ratio between dosage used and LPP10), the “plasma concentration at LPP10” value was 9.9 ng/mL. In data set [4] (second analysis: 14-fold lower than 43 ng/mL), the “plasma concentration estimated to show sufficient effects on urethra-closing function in humans” value is “around 3 ng/mL”.
Consider `CNCC[C@H](Oc1cccc2ccccc12)c1cccs1` [Duloxetine, duloxetine hydrochloride], for which the “LPP Post” value in the data set on urethral resistance [5] (5 mg/kg i.d.) was 38.3 ± 2.7 cmH2O; in the data set on urethral resistance [5] (10 mg/kg i.d.), 39.1 ± 2.9 cmH2O; in the data set with urethral resistance [5] (20 mg/kg i.d.) it was 46.6 ± 5.7 cmH2O; in the data set on urethral resistance [7] (5 mg/kg p.o.), 64.1 ± 5.5 cmH2O; in the data set on urethral resistance [7] (10 mg/kg p.o.), 67.6 ± 3.5 cmH2O; in the data set with urethral resistance [7] (20 mg/kg p.o.) it was 69.8 ± 4.0 cmH2O. The “LPP Post” value in the data set on urethral resistance [7] (40 mg/kg p.o.) was determined as 73.3 ± 5.3 cmH2O. The “LPP Increase” value stood at 1.7 ± 1.4 cmH2O in the data set with urethral resistance [5] (5 mg/kg i.d.); 3.7 ± 2.3 cmH2O with urethral resistance [5] (10 mg/kg i.d.); 9.7 ± 3.5 cmH2O with urethral resistance [5] (20 mg/kg i.d.); 4.2 ± 1.7 cmH2O with urethral resistance [7] (5 mg/kg p.o.); 7.7 ± 2.2 cmH2O in the data set with urethral resistance [7] (10 mg/kg p.o.); 11.9 ± 3.7 cmH2O in the data set on urethral resistance [7] (20 mg/kg p.o.). In the data set on urethral resistance [7] (40 mg/kg p.o.), the “LPP Increase” value was found to be 13.1 ± 2.9 cmH2O. Also, the “LPP Pre” value came to 36.6 ± 3.0 cmH2O in the data set on urethral resistance [5] (5 mg/kg i.d.); 35.3 ± 3.0 cmH2O in the data set with urethral resistance [5] (10 mg/kg i.d.); 36.9 ± 2.8 cmH2O in the data set on urethral resistance [5] (20 mg/kg i.d.); 59.9 ± 5.1 cmH2O with urethral resistance [7] (5 mg/kg p.o.); 59.8 ± 3.8 cmH2O in the data set with urethral resistance [7] (10 mg/kg p.o.); 57.9 ± 2.7 cmH2O with urethral resistance [7] (20 mg/kg p.o.). The “LPP Pre” value with urethral resistance [7] (40 mg/kg p.o.) worked out at 60.2 ± 3.1 cmH2O. The “Urethra-closing reflex response Post” value in data set [6] (30 minutes after administration, intravesical pressure rise by 50 cm H2O) was found to be 8.66 ± 1.34 cmH2O. Further, the “Urethra-closing reflex response Pre” value in data set [6] (before administration, intravesical pressure rise by 50 cm H2O) is 4.88 ± 0.86 cmH2O. Moreover, the “Urethra-closing reflex response Ratio (Post/Pr)” value in data set [6] (ratio of Post value to Pre value) amounted to 2.00 ± 0.28. Besides, the “MT of the urethra-closing response in response to TMS, Mean” value was 67.4% in the data set with urethra-closing response (0.5 hr), 62.0% in the data set on urethra-closing response (2 hr), 56.4% in the data set on urethra-closing response (6 hr) and 67.8% in the data set on urethra-closing response (Predose). Besides, the “Rate of change from baseline of MT of the urethra-closing response in response to TMS, Mean” value in the data set with urethra-closing response (0.5 hr) is −0.4%; in the data set with urethra-closing response (2 hr) it was −5.9%; in the data set with urethra-closing response (6 hr) it was −11.8%. For the same molecule, the “maximum change from baseline in MT in response to TMS” value with urethra-closing response (40 mg group, at 6 hours post dose) is −11.8%. The “maximal urethral resistance increasing effect (LPP elevation) in rats” value in data set [4] (summary of Examples 2 and 5) is “around 10 cmH2O”.

The record behind these values is patent US20210052600A1, “THERAPEUTIC AGENTS FOR STRESS URINARY INCONTINENCE AND INCOTINENCE OF FECES” (Takeda Pharmaceutical Company Limited, priority 2017, published 2021).
